The text below walks through data of patent publication US10874743B2, “IRAK degraders and uses thereof” (Kymera Therapeutics, Inc., priority 2017, dated 2020).

For experiment [1], the target named is T1, IRAK4 (Homo sapiens, UniProt Q9NWZ3).
T1 sequence (Q9NWZ3 1-460): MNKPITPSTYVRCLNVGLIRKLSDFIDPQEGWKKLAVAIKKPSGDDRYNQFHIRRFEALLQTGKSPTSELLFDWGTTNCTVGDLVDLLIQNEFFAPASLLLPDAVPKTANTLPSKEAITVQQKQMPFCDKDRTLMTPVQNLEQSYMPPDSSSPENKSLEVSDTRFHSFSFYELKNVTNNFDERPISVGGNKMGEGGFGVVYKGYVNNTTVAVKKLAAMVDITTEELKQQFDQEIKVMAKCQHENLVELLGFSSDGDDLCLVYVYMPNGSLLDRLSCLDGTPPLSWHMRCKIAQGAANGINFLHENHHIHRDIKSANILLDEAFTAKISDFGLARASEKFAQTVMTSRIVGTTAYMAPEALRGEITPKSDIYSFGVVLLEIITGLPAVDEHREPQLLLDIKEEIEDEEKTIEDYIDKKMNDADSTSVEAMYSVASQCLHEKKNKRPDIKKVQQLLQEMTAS
The experiment in a line: OCI-LY-10 degradation assay (western blot, % IRAK4 degraded after 4 hours). In kind it is cell-based. Also on record: endogenous in cells; host or cells: OCI-LY10. The note with it: OCI-LY10 cells, 4 hours; for OCI-LY10 % IRAK4 Degradation (0.01 uM): 0.01 uM compound; for OCI-LY10 % IRAK4 Degradation (0.1 uM): 0.1 uM compound; for OCI-LY10 % IRAK4 Degradation (1 uM): 1 uM compound. The essentials: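 OCI-LY10 cells (RPMI-1640, 20% FBS, 55 μM 2-ME) treated with compound at 0.003-10 μM final for 4 h at 37° C, then lysed in RIPA buffer. IRAK4 level read by fluorescent western blot (20-25 μg protein) and binned as % degraded: A >50%, B >20-50%, C <20%.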
A general note: A western blot detects proteins with antibodies after separation by electrophoresis.

The target of experiment [2] is T1, IRAK4. Kind of experiment: OCI-LY-10 MSD assay for IRAK4 DC50. The note with it: OCI-LY10 cells, 4 hr incubation, concentration required to degrade 50% of protein. It is filed as cell-based. Also noted: endogenous in cells; host or cells: OCI-LY10. Put shortly: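 OCI-Ly10 cells were exposed to compound for 4 hr across a 3-fold, 8-point dilution series. Lysates were made in RIPA buffer, and IRAK4 remaining was measured by MSD sandwich immunoassay with anti-IRAK4 capture and detection antibodies. DC50 was taken from a four-parameter logistic fit.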

For orientation: DC50 means the concentration giving 50% degradation. A higher DC50 goes with a less potent degrader. As for `O=C1CCC(N2C(=O)c3ccc(CCOCCN4CCC(n5cc(NC(=O)c6coc(-c7ccnc(NCC8CC8)c7)n6)c(C(F)F)n5)CC4)cc3C2=O)C(=O)N1` (stereo not shown) [I-262], on IRAK4 [1], the “OCI-LY10 % IRAK4 Degradation (0.01 uM)” value is recorded as “C (<20% degradation)”, the “OCI-LY10 % IRAK4 Degradation (0.1 uM)” value was “B (>20-50% degradation)” and the “OCI-LY10 % IRAK4 Degradation (1 uM)” value is reported as “B (>20-50% degradation)”. On IRAK4 [2], this compound yielded a DC50 of more than 1000 nM.
As to `O=C1CCC(n2c(=O)oc3c(CCCOCCOCCNC(=O)c4ccc(-n5cc(NC(=O)c6coc(-c7ccnc(NCC8CC8)c7)n6)c(C(F)F)n5)cc4)cccc32)C(=O)N1` (stereo not shown) [I-265], on IRAK4 [1], the “OCI-LY10 % IRAK4 Degradation (0.01 uM)” value is on record as “B (>20-50% degradation)”, the “OCI-LY10 % IRAK4 Degradation (0.1 uM)” value is recorded as “A (>50% degradation)” and the “OCI-LY10 % IRAK4 Degradation (1 uM)” value was “A (>50% degradation)”. In addition, the DC50 at IRAK4 [2] was less than 50 nM.
As for `NC(=O)c1nn(-c2ccc(C(=O)NCCOCCOCCCc3cccc4c3oc(=O)n4C3CCC(=O)NC3=O)cc2)cc1NC(=O)c1coc(-c2ccnc(NCC(F)(F)F)c2)n1` (stereo not shown) [I-266], on IRAK4 [1], the “OCI-LY10 % IRAK4 Degradation (0.01 uM)” value is recorded as “C (<20% degradation)”, the “OCI-LY10 % IRAK4 Degradation (0.1 uM)” value was “A (>50% degradation)” and the “OCI-LY10 % IRAK4 Degradation (1 uM)” value is “A (>50% degradation)”. The DC50 at IRAK4 [2] was less than 50 nM.
Consider `O=C1CCC(N2C(=O)c3cccc(NC4CCN(CCOCCOCCNC(=O)c5ccc(-n6cc(NC(=O)c7coc(-c8ccnc(NCC9CC9)c8)n7)c(C(F)F)n6)cc5)CC4)c3C2=O)C(=O)N1` (stereo not shown) [I-267], for which, at IRAK4 [1], the “OCI-LY10 % IRAK4 Degradation (0.01 uM)” value is “C (<20% degradation)”, the “OCI-LY10 % IRAK4 Degradation (0.1 uM)” value is “A (>50% degradation)” and the “OCI-LY10 % IRAK4 Degradation (1 uM)” value is recorded as “B (>20-50% degradation)”. Besides, the DC50 at IRAK4 [2] fell in the range of 50 to 100 nM.
For `O=C1CCC(N2C(=O)c3cccc(NC4CCN(CCOCCOCCOCCNC(=O)c5ccc(-n6cc(NC(=O)c7coc(-c8ccnc(NCC9CC9)c8)n7)c(C(F)F)n6)cc5)CC4)c3C2=O)C(=O)N1` (stereo not shown) [I-269], in that order: “C (<20% degradation)”, “B (>20-50% degradation)”, “A (>50% degradation)” and less than 50 nM.
Taken in the same sequence, the figures for `O=C1CCC(N2C(=O)c3ccc(NC4CCN(CCOCCOCCNC(=O)c5ccc(-n6cc(NC(=O)c7coc(-c8ccnc(NCC9CC9)c8)n7)c(C(F)F)n6)cc5)CC4)cc3C2=O)C(=O)N1` (stereo not shown) [I-270] were “C (<20% degradation)”, “B (>20-50% degradation)”, “A (>50% degradation)” and 100 to 500 nM.
Taken in the same sequence, the figures for `O=C1CCC(N2C(=O)c3ccc(NC4CCN(CCOCCOCCOCCNC(=O)c5ccc(-n6cc(NC(=O)c7coc(-c8ccnc(NCC9CC9)c8)n7)c(C(F)F)n6)cc5)CC4)cc3C2=O)C(=O)N1` (stereo not shown) [I-272] were “C (<20% degradation)”, “B (>20-50% degradation)”, “A (>50% degradation)” and 100 to 500 nM.
Consider `O=C1CCC(N2C(=O)c3ccc(N4CCN(CCOCCOCCNC(=O)c5ccc(-n6cc(NC(=O)c7coc(-c8ccnc(NCC9CC9)c8)n7)c(C(F)F)n6)cc5)CC4)cc3C2=O)C(=O)N1` (stereo not shown) [I-276], for which, on IRAK4 [1], the “OCI-LY10 % IRAK4 Degradation (0.01 uM)” value is reported as “C (<20% degradation)”, the “OCI-LY10 % IRAK4 Degradation (0.1 uM)” value is on record as “B (>20-50% degradation)” and the “OCI-LY10 % IRAK4 Degradation (1 uM)” value was “A (>50% degradation)”. The compound also had a DC50 on IRAK4 [2] of 50 to 100 nM.
`O=C1CCC(N2C(=O)c3ccc(N4CCN(CCOCCNC(=O)c5ccc(-n6cc(NC(=O)c7coc(-c8ccnc(NCC9CC9)c8)n7)c(C(F)F)n6)cc5)CC4)cc3C2=O)C(=O)N1` (stereo not shown) [I-277]: at IRAK4 [1], the “OCI-LY10 % IRAK4 Degradation (0.01 uM)” value is recorded as “C (<20% degradation)”, the “OCI-LY10 % IRAK4 Degradation (0.1 uM)” value was “A (>50% degradation)” and the “OCI-LY10 % IRAK4 Degradation (1 uM)” value is listed as “A (>50% degradation)”. The DC50 at IRAK4 [2] is 50 to 100 nM.
For `O=C1CCC(N2C(=O)c3ccc(N4CCN(CCOCCOCCOCCNC(=O)c5ccc(-n6cc(NC(=O)c7coc(-c8ccnc(NCC9CC9)c8)n7)c(C(F)F)n6)cc5)CC4)cc3C2=O)C(=O)N1` (stereo not shown) [I-278], on IRAK4 [1], the “OCI-LY10 % IRAK4 Degradation (0.01 uM)” value was “C (<20% degradation)”, the “OCI-LY10 % IRAK4 Degradation (0.1 uM)” value was “B (>20-50% degradation)” and the “OCI-LY10 % IRAK4 Degradation (1 uM)” value was “A (>50% degradation)”. This compound displayed a DC50 at IRAK4 [2] of 50 to 100 nM.
Taken in the same sequence, the figures for `CN(CCOCCOCCCc1ccc2c(c1)C(=O)N(C1CCC(=O)NC1=O)C2=O)C(=O)c1ccc(-n2cc(NC(=O)c3coc(-c4ccnc(NCC(F)(F)F)c4)n3)c(C(F)F)n2)cc1` (stereo not shown) [I-279] were “C (<20% degradation)”, “A (>50% degradation)”, “A (>50% degradation)” and 50 to 100 nM.
For `O=C1CCC(N2C(=O)c3cccc(NCCOCCN4CCO[C@H](CNC(=O)c5ccc(-n6cc(NC(=O)c7coc(-c8ccnc(NCC(F)(F)F)c8)n7)c(C(F)F)n6)cc5)C4)c3C2=O)C(=O)N1` (stereo partly shown) [I-281], in that order: “C (<20% degradation)”, “A (>50% degradation)”, “A (>50% degradation)” and 50 to 100 nM.
For `O=C1CCC(N2C(=O)c3cccc(NC4CCN(CCOCCOCCNC(=O)c5ccc(-n6cc(NC(=O)c7coc(-c8ccnc(NCC(F)(F)F)c8)n7)c(C(F)F)n6)cc5)CC4)c3C2=O)C(=O)N1` (stereo not shown) [I-283], in that order: “A (>50% degradation)”, “A (>50% degradation)”, “A (>50% degradation)” and less than 50 nM.
Consider `CC(C)(C)[C@H](NC(=O)COCCOCCOCCNc1cccc2c1C(=O)N(C1CCC(=O)NC1=O)C2=O)C(=O)N1C[C@H](O)C[C@H]1C(=O)NCc1ccc(-n2cc(NC(=O)c3coc(-c4ccnc(NCC5CC5)c4)n3)c(C(F)F)n2)cc1` (stereo partly shown) [I-284], for which, on IRAK4 [1], the “OCI-LY10 % IRAK4 Degradation (0.01 uM)” value is “C (<20% degradation)”, the “OCI-LY10 % IRAK4 Degradation (0.1 uM)” value is “C (<20% degradation)” and the “OCI-LY10 % IRAK4 Degradation (1 uM)” value is “C (<20% degradation)”. At IRAK4 [2], this compound had a DC50 of more than 1000 nM.
As to `O=C1CCC(N2C(=O)c3cccc(NCCOCCOCCOCC(=O)N4C[C@H](O)C[C@H]4C(=O)NCc4ccc(-n5cc(NC(=O)c6coc(-c7ccnc(NCC8CC8)c7)n6)c(C(F)F)n5)cc4)c3C2=O)C(=O)N1` (stereo partly shown) [I-287], at IRAK4 [1], the “OCI-LY10 % IRAK4 Degradation (0.01 uM)” value was “C (<20% degradation)”, the “OCI-LY10 % IRAK4 Degradation (0.1 uM)” value was “C (<20% degradation)” and the “OCI-LY10 % IRAK4 Degradation (1 uM)” value was “B (>20-50% degradation)”. Also, the DC50 on IRAK4 [2] was more than 1000 nM.
In the case of `CC(=O)O[C@@H]1C[C@@H](C(=O)NCc2ccc(-n3cc(NC(=O)c4coc(-c5ccnc(NCC6CC6)c5)n4)c(C(F)F)n3)cc2)N(C(=O)COCCOCCOCCNc2cccc3c2C(=O)N(C2CCC(=O)NC2=O)C3=O)C1` (stereo partly shown) [I-288], at IRAK4 [1], the “OCI-LY10 % IRAK4 Degradation (0.01 uM)” value is listed as “C (<20% degradation)”, the “OCI-LY10 % IRAK4 Degradation (0.1 uM)” value is reported as “C (<20% degradation)” and the “OCI-LY10 % IRAK4 Degradation (1 uM)” value was “A (>50% degradation)”. For the same compound, the DC50 at IRAK4 [2] is 50 to 100 nM.
`NC(=O)c1nn(-c2ccc(C(=O)NCCOCCOCCN3CCC(Nc4cccc5c4C(=O)N(C4CCC(=O)NC4=O)C5=O)CC3)cc2)cc1NC(=O)c1coc(-c2ccnc(NCC3CC3)c2)n1` (stereo not shown) [I-290]: on IRAK4 [1], the “OCI-LY10 % IRAK4 Degradation (0.01 uM)” value was “B (>20-50% degradation)”, the “OCI-LY10 % IRAK4 Degradation (0.1 uM)” value is listed as “B (>20-50% degradation)” and the “OCI-LY10 % IRAK4 Degradation (1 uM)” value was “B (>20-50% degradation)”. Besides, the DC50 on IRAK4 [2] is more than 1000 nM.
In the case of `Cn1cc(NC(=O)c2coc(-c3ccnc(NCC(F)(F)F)c3)n2)c(C(=O)NCCCOCC(C)(C)COCCCc2cccc3c2n(C)c(=O)n3C2CCC(=O)NC2=O)n1` (stereo not shown) [I-297], on IRAK4 [1], the “OCI-LY10 % IRAK4 Degradation (0.01 uM)” value is given as “C (<20% degradation)”, the “OCI-LY10 % IRAK4 Degradation (0.1 uM)” value is given as “C (<20% degradation)” and the “OCI-LY10 % IRAK4 Degradation (1 uM)” value is reported as “C (<20% degradation)”. This compound returned a DC50 at IRAK4 [2] of more than 1000 nM.
With `NC(=O)c1nn(-c2ccc(COCC3CN(CCOCCNc4cccc5c4C(=O)N(C4CCC(=O)NC4=O)C5=O)CCO3)cc2)cc1NC(=O)c1coc(-c2ccnc(NCC(F)(F)F)c2)n1` (stereo not shown) [I-302, N-[3-carbamoyl-1-[4-[[4-[2-[2-[[2-(2,6-dioxo-3-piperidyl)-1,3-dioxo-isoindolin-4-yl]amino]ethoxy]ethyl]morpholin-2-yl]methoxymethyl]phenyl]pyrazol-4-yl]-2-[2-(2,2,2-trifluoroethylamino)-4-pyridyl]oxazole-4-carboxamide], at IRAK4 [1], the “OCI-LY10 % IRAK4 Degradation (0.01 uM)” value is on record as “B (>20-50% degradation)”, the “OCI-LY10 % IRAK4 Degradation (0.1 uM)” value was “A (>50% degradation)” and the “OCI-LY10 % IRAK4 Degradation (1 uM)” value is listed as “A (>50% degradation)”. The same compound returned a half-maximal degradation concentration (DC50) on IRAK4 [2] of less than 50 nM.
